# According to publication PMC6171243, “Suppression of lung cancer progression by isoliquiritigenin through its metabolite 2, 4, 2’, 4’-Tetrahydroxychalcone” (Journal of Experimental & Clinical Cancer Research : CR, 2018):
# Biological target: Src (Homo sapiens, UniProt P12931)
# Experiment: cell-free ADP-Glo Src kinase assay (Promega)
# Type: biochemical
# Sequence of Src (P12931 2-536): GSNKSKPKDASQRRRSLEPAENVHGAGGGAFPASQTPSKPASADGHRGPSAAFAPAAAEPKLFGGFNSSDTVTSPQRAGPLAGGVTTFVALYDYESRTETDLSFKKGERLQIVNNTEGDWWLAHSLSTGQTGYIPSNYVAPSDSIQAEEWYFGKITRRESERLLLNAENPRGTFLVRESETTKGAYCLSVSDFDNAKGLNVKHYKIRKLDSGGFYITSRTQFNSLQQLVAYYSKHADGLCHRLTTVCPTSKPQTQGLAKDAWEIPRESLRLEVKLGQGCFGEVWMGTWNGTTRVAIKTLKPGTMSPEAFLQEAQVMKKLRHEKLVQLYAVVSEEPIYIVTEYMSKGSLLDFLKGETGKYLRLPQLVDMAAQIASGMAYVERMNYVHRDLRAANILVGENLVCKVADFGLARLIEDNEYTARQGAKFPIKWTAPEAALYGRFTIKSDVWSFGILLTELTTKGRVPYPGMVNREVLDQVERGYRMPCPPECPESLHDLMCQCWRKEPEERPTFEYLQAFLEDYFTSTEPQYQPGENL
smiles,measurement,value
"O=C(/C=C/c1ccc(O)cc1O)c1ccc(O)cc1O [THC, 2,4, 2′, 4′-tetrahydroxychalcone]",IC50,1440 nM
